Reference: patent publication US20030104489A1, “Functional assay for agonist activation of receptors” (Pfizer Inc., priority 2001, published 2003)

Test system: D3-G[…]15 cells
Assay: FLIPR assay of intracellular Ca2+ release in D3-Gα15 cells, effect of pre-incubation time at 37 °C (Table 2)
Assay type: cell-based
Settings: for Ca2+ response (FLIPR signal), time at 37 °C: 5 min: 5 min pre-incubation at 37 °C; for Ca2+ response (FLIPR signal), time at 37 °C: 5 min / Ca2+ response (FLIPR signal), time at 37 °C: 15 min / % change (elevation of FLIPR signal, 5 min to 15 min pre-incubation at 37 °C): dopamine 100 nM; for Ca2+ response (FLIPR signal), time at 37 °C: 5 min / Ca2+ response (FLIPR signal), time at 37 °C: 15 min: (at or above EC90); for Ca2+ response (FLIPR signal), time at 37 °C: 15 min: 15 min pre-incubation at 37 °C; for % change (elevation of FLIPR signal, 5 min to 15 min pre-incubation at 37 °C): 15 min vs 5 min at 37 °C; for effect of prolonged preincubation at 37 °C on the induced Ca2+ response: ATP via endogenous purinergic receptors, ionomycin as ionophore
Protocol: The HEK293-Gα15 cell line stably expressing the D3 receptor was used to develop Ca^2+-based assay using the FLIPR-based method. Cells were plated in a 96 or 384 well poly-D lysine-coated FLIPR plates for 16-24 hours before the assay. Cells were loaded with cell dye-media solution (media −11 ml, dye-4 μM Fluo-4 AM, Pluronic® acid 22 ul, probenecid −110 ul of 260 mM solution) for 1 hour at 37° C. The plates were washed in the Skatron Embla™ plate washer with assay buffer (NaCl—0.145M, Glucose—0.01 M, KCl—0.005M, MgSO4—0.001 M, HEPES—0.01 M and CaCl2—0.002M) and stabilized for 30 minutes at 25° C. and 37° C., respectively, before starting the experiment. Antagonists were added 15 minutes prior to the agonist addition. The fluorescence intensities were measured using the excitation and emission wavelengths of 488 nm and 520 nm respectively. Data are taken as the average +S.D. of four replicates.
[…]. The elevation of FLIPR signal (in percentage) in 5 min and 15 min pre-incubation at 37° C. is shown.

Structure (SMILES) | Ca2+ response (FLIPR signal), time at 37 °C: 5 min | Ca2+ response (FLIPR signal), time at 37 °C: 15 min | % change (elevation of FLIPR signal, 5 min to 15 min pre-incubation at 37 °C) [%] | effect of prolonged preincubation at 37 °C on the induced Ca2+ response
Nc1ncnc2c1ncn2[C@@H]1O[C@H](COP(=O)(O)OP(=O)(O)OP(=O)(O)O)[C@@H](O)[C@H]1O [ATP] | 2859 ± 630 | 3346 ± 171 | 17 | not affected
NCCc1ccc(O)c(O)c1 [Dopamine, dopamine] | 157 ± 47 | 550 ± 38 | 257 | –
C[C@H](CCC(=O)O)C[C@H](C)C[C@H](C)C(=O)/C=C(\O)[C@H](C)C[C@H](C)C/C=C/[C@@H](C)[C@@H](O)[C@@H](C)[C@@H](O)C[C@@H]1CC[C@@](C)([C@H]2CC[C@@](C)([C@@H](C)O)O2)O1 [ionomycin] | 8042 ± 652 | 8465 ± 132 | 5 | not affected
